Data as given in PMC10580965 (Microbiology Spectrum, 2023).
Converted amounts (≈) assume the structure as drawn. Where two headings read alike, the source gives them in different places. Bridge positions count the residues as written; N and C are the ends. Square brackets hold non-standard residues; d marks the D form. Peptide text beside a SMILES is read from it. * marks the point of attachment. Ileψ(thiazoline)Cys = CC[C@H](C)[C@H](N)C1=N[C@H](C(=O)*)CS1; dOrn = NCCC[C@@H](N)C(=O)O; X1 = CC[C@H](C)CCCCC(=O)*; Dab = NCC[C@H](N)C(=O)O

How the values were obtained:
[1] = pH 7; cited from earlier work
[2] = test system: C. pseudotuberculosis ΔlysX complement
[3] = test system: C. pseudotuberculosis wild-type
[4] = test system: Corynebacterium spp.; conditions: cited from earlier work

Which Charge [1] does the source give for CC1(C)S[C@@H]2[C@H](NC(=O)[C@H](N)c3ccccc3)C(=O)N2[C@H]1C(=O)O [Ampicillin] here?
The Charge was 0.

What does the source list for CN[C@@H]1[C@@H](O[C@H]2O[C@H](CO)[C@@H](N)[C@H](O)[C@H]2O)OC2C[C@@H](N)[C@@H](O[C@H]3[C@H](O)[C@@H](O)[C@H](N)C[C@@H]3N)OC2[C@@H]1O (some centres unmarked) [Apramycin]?
MIC ΔlysX complement [2]: 20 µg/mL (≈ 37.1 µM); MIC wt [3]: 20 µg/mL (≈ 37.1 µM); Charge [1]: +5

What does the source list for CC1(C)S[C@@H]2[C@H](NC(=O)[C@H](NC(=O)N3CCNC3=O)c3ccccc3)C(=O)N2[C@H]1C(=O)O [Azlocillin]?
MIC wt [3]: 0.156 µg/mL (≈ 0.338 µM); Charge [1]: −1

With CC[C@H](C)[C@H](N)C1=N[C@H](C(=O)N[C@@H](CC(C)C)C(=O)N[C@H](CCC(=O)O)C(=O)N[C@H](C(=O)N[C@H]2CCCCNC(=O)[C@H](CC(N)=O)NC(=O)[C@@H](CC(=O)O)NC(=O)[C@H](Cc3cnc[nH]3)NC(=O)[C@@H](Cc3ccccc3)NC(=O)[C@H]([C@@H](C)CC)NC(=O)[C@@H](CCCN)NC2=O)[C@@H](C)CC)CS1 [Bacitracin] ({Ileψ(thiazoline)Cys}-L[dE]IK[dOrn]I[dF]H[dD]N; lactam 4-C (inferred); N-terminus assumed) as the compound, how does the MIC wt ([3]; 24 h) read?
The MIC wt was 6.4 µg/mL (≈ 4.5 µM).

And the Charge [1]?
Its Charge is 0.

Which results are given for CO/N=C(\C(=O)N[C@@H]1C(=O)N2C(C(=O)O)=C(CSc3nc(=O)c(=O)[nH]n3C)CS[C@H]12)c1csc(N)n1 [Ceftriaxone]?
MIC wt [3]: 0.625 µg/mL (≈ 1.13 µM); Charge [1]: −2

For O=C(N[C@H](CO)[C@H](O)c1ccc([N+](=O)[O-])cc1)C(Cl)Cl [Chloramphenicol], which MIC wt [3] is on record?
The MIC wt was 10 µg/mL (≈ 30.9 µM).

And the Charge [1]?
The Charge was 0.

With CC[C@H]1OC(=O)[C@H](C)[C@@H](O[C@H]2C[C@@](C)(OC)[C@@H](O)[C@H](C)O2)[C@H](C)[C@@H](O[C@@H]2O[C@H](C)C[C@H](N(C)C)[C@H]2O)[C@](C)(O)C[C@@H](C)C(=O)[C@H](C)[C@@H](O)[C@]1(C)O [Erythromycin] as the compound, how does the MIC wt [3] read?
Its MIC wt is 0.156 µg/mL (≈ 0.213 µM).

What about the Charge [1] of the same compound?
Its Charge is “+1”.

For CNC(C)C1CCC(N)C(OC2C(N)CC(N)C(OC3OCC(C)(O)C(NC)C3O)C2O)O1 (centres unmarked) [Gentamicin], which “MIC ΔlysX complement” value [2] is on record?
The value was 5 µg/mL (≈ 10.5 µM).

And the MIC wt [3]?
Its MIC wt is 5 µg/mL (≈ 10.5 µM).

What about the Charge [1] of the same compound?
The Charge was “+5”.

And the susceptibility breakpoint [4]?
The susceptibility breakpoint was 4 µg/mL.

What does the source list for NC[C@H]1O[C@H](O[C@H]2[C@H](O)[C@@H](O[C@H]3O[C@H](CO)[C@@H](O)[C@H](N)[C@H]3O)[C@H](N)C[C@@H]2N)[C@H](O)[C@@H](O)[C@@H]1O [Kanamycin]?
MIC ΔlysX complement [2]: 10 µg/mL (≈ 20.6 µM); MIC wt [3]: 10 µg/mL (≈ 20.6 µM); Charge [1]: +4

For CC[C@H](C)[C@H](NC(=O)CN)C(=O)NCC(=O)N[C@@H](C)C(=O)N[C@H](C(=O)N[C@@H](CC(C)C)C(=O)N[C@@H](CCCCN)C(=O)N[C@H](C(=O)N[C@@H](CC(C)C)C(=O)N[C@H](C(=O)N[C@H](C(=O)NCC(=O)N[C@@H](CC(C)C)C(=O)N1CCC[C@H]1C(=O)N[C@@H](C)C(=O)N[C@@H](CC(C)C)C(=O)N[C@H](C(=O)N[C@@H](CO)C(=O)N[C@@H](Cc1c[nH]c2ccccc12)C(=O)N[C@H](C(=O)N[C@@H](CCCCN)C(=O)N[C@@H](CCCNC(=N)N)C(=O)N[C@@H](CCCCN)C(=O)N[C@@H](CCCNC(=N)N)C(=O)N[C@@H](CCC(N)=O)C(=O)N[C@@H](CCC(N)=O)C(N)=O)[C@@H](C)CC)[C@@H](C)CC)[C@@H](C)O)[C@@H](C)O)C(C)C)C(C)C [Melittin], which “MIC ΔlysX complement” value ([2]; 24 h) is on record?
Its value is >40 µg/mL.

And the MIC wt ([3]; 24 h)?
The MIC wt was >40 µg/mL.

And the Charge [1]?
Its Charge is “+5”.

What does the source list for Cc1onc(-c2ccccc2)c1C(=O)N[C@@H]1C(=O)N2[C@@H]1SC(C)(C)[C@@H]2C(=O)O [Oxacillin]?
MIC wt [3]: 2.5 µg/mL (≈ 6.23 µM); Charge [1]: −1

With CN(C)[C@@H]1C(O)=C(C(N)=O)C(=O)[C@@]2(O)C(O)=C3C(=O)c4c(O)cccc4[C@@](C)(O)[C@H]3[C@H](O)[C@@H]12 [Oxytetracycline] as the compound, how does the MIC wt [3] read?
The MIC wt was 0.625 µg/mL (≈ 1.36 µM).

And the Charge [1]?
The Charge was 0.

With CC[C@H](C)CCCCC(=O)N[C@@H](CCN)C(=O)N[C@H](C(=O)N[C@@H](CCN)C(=O)N[C@H]1CCNC(=O)[C@H]([C@@H](C)O)NC(=O)[C@H](CCN)NC(=O)[C@H](CCN)NC(=O)[C@H](CC(C)C)NC(=O)[C@@H](Cc2ccccc2)NC(=O)[C@H](CCN)NC1=O)[C@@H](C)O [Polymyxin B] (X1-[Dab]T[Dab][Dab][Dab][dF]L[Dab][Dab]T; lactam 4-C (inferred); N-terminus assumed) as the compound, how does the “MIC ΔlysX complement” value ([2]; 24 h) read?
The value was 640 µg/mL (≈ 532 µM).

And the MIC wt ([3]; 24 h)?
The MIC wt was 640 µg/mL (≈ 532 µM).

And the Charge [1]?
Its Charge is “+5”.

For CN[C@@H]1[C@H](O)[C@H](NC)[C@H]2O[C@@]3(O)C(=O)C[C@@H](C)O[C@H]3O[C@@H]2[C@H]1O [Spectinomycin], which “MIC ΔlysX complement” value [2] is on record?
Its value is 2.5 µg/mL (≈ 7.52 µM).

What about the MIC wt [3] of the same compound?
The MIC wt was 2.5 µg/mL (≈ 7.52 µM).

What about the Charge [1] of the same compound?
The Charge was “+1”.

For [H]/N=C(/N)N[C@H]1[C@H](O)[C@@H](O)[C@H](O[C@@H]2O[C@@H](C)[C@](O)(C=O)[C@H]2O[C@@H]2O[C@@H](CO)[C@H](O)[C@@H](O)[C@@H]2NC)[C@@H](N/C(N)=N\[H])[C@@H]1O [Streptomycin], which “MIC ΔlysX complement” value [2] is on record?
The value was 20 µg/mL (≈ 34.4 µM).

And the MIC wt [3]?
The MIC wt was 20 µg/mL (≈ 34.4 µM).

What about the Charge [1] of the same compound?
Its Charge is “+3”.

Which MIC wt [3] does the source give for CN(C)[C@@H]1C(O)=C(C(N)=O)C(=O)[C@@]2(O)C(O)=C3C(=O)c4c(O)cccc4[C@@](C)(O)[C@H]3C[C@@H]12 [Tetracycline] here?
Its MIC wt is 0.312 µg/mL (≈ 0.702 µM).

What about the Charge [1] of the same compound?
Its Charge is −1.

Which “MIC ΔlysX complement” value [2] does the source give for CCCNC[C@]1(O)[C@H](C)O[C@@H](O[C@H]2[C@H](C)[C@@H](O[C@@H]3O[C@H](C)C[C@H](N(C)C)[C@H]3O)[C@](C)(O)C[C@@H](C)CN[C@H](C)[C@@H](O)[C@](C)(O)[C@@H](CC)OC(=O)[C@@H]2C)C[C@@]1(C)OC [Tulathromycin] here?
The value was 2.5 µg/mL (≈ 3.1 µM).

And the MIC wt [3]?
Its MIC wt is 2.5 µg/mL (≈ 3.1 µM).

What about the Charge [1] of the same compound?
Its Charge is “+3”.

Which MIC wt ([3]; 24 h) does the source give for CN[C@H](CC(C)C)C(=O)N[C@H]1C(=O)N[C@@H](CC(N)=O)C(=O)N[C@H]2C(=O)N[C@H]3C(=O)N[C@H](C(=O)N[C@H](C(=O)O)c4cc(O)cc(O)c4-c4cc3ccc4O)[C@H](O)c3ccc(c(Cl)c3)Oc3cc2cc(c3O[C@@H]2O[C@H](CO)[C@@H](O)[C@H](O)[C@H]2O[C@H]2C[C@](C)(N)[C@H](O)[C@H](C)O2)Oc2ccc(cc2Cl)[C@H]1O [Vancomycin] here?
Its MIC wt is 0.75 µg/mL (≈ 0.518 µM).

What about the Charge [1] of the same compound?
Its Charge is “+1”.

Which results are given for Nisin?
MIC ΔlysX complement [2]: 80 µg/mL; MIC wt [3]: 80 µg/mL; Charge [1]: +4
